The text below walks through data of ChEMBL document CHEMBL4334516, “Kinase Chemodiversity from the Arctic: The Breitfussins” (J Med Chem, 2019).

Calls of active or inactive are those of the source. The rule behind the calls is not given here.

One may read the IC50 as the concentration that gives 50% inhibition. By Kd is commonly meant the free concentration of one partner at which half of the binding sites on the other are occupied at equilibrium, for simple one-to-one binding.

The target of series [1] is Mitogen-activated protein kinase kinase kinase 9 (Homo sapiens, UniProt P80192). As to the kind of experiment: Inhibition of MLK1 (unknown origin) assessed as residual enzyme activity at 5 uM by [33P]-ATP filter binding kinase assay relative to control.
Chain of Mitogen-activated protein kinase kinase kinase 9 (P80192 whole entry, looked up): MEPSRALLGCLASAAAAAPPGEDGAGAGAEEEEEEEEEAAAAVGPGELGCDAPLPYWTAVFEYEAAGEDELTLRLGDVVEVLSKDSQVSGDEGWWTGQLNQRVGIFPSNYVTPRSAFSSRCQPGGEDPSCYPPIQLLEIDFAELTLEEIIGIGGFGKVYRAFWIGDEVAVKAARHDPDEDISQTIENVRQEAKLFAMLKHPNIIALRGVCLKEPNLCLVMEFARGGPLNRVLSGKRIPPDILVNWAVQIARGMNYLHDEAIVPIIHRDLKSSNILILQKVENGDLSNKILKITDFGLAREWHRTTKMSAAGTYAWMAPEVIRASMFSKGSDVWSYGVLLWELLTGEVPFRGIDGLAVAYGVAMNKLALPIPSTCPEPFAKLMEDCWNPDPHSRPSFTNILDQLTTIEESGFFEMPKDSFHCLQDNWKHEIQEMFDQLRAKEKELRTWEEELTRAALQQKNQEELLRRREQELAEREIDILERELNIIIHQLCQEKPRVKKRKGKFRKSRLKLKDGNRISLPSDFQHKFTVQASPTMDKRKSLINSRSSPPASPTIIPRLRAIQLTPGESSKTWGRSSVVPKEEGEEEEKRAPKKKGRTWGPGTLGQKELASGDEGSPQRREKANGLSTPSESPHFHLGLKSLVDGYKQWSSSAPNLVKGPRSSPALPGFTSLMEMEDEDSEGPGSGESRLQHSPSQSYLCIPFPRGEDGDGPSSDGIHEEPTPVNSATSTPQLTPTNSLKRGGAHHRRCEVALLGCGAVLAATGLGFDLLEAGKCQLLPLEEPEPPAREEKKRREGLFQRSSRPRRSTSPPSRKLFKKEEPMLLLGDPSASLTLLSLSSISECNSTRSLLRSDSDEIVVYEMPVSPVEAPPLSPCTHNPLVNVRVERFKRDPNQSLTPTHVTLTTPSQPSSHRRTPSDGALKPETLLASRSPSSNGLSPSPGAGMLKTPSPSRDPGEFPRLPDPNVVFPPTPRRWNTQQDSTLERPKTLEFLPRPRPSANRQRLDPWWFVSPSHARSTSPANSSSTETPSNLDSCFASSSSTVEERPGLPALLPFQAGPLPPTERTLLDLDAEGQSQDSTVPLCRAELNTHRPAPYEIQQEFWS
For series [2], the system named is MCF7. As to the kind of experiment: Cytotoxicity in human MCF7 cells assessed as reduction in cell viability by MTS assay. The series is classed as functional, cell-based. To be noted: TDE = time-dependent effect. For orientation: Formazan colour is commonly taken as a measure of viable cells.
Series [3] can be described thus: Toxicity in zebrafish embryos assessed as survival at 1.4 uM after 72 hrs (reference value: 95%). More on the design: species or system Danio rerio. To be noted: in vivo.
Series [4] has as its system JIMT-1. As to the kind of experiment: Cytotoxicity in human JIMT1 cells assessed as reduction in cell viability incubated for 72 hrs by SRB assay. To be noted: JIMT-1, 72 h. In general terms: In SRB staining, fixed cells bind dye roughly in proportion to their protein.
Series [5] addresses Serine/threonine-protein kinase 36 (Homo sapiens, UniProt Q9NRP7). As to the kind of experiment: Binding affinity to wild-type human partial length STK36 (M1 to T271 residues) expressed in bacterial expression system by active-site directed competition binding assay based Kinomescan method.
The nature of series [6]: Toxicity in zebrafish embryos assessed as induction of general edema by measuring unaffected embryos level at 14 uM after 72 hrs (reference value: 100%). Details: species or system Danio rerio. To be noted: in vivo.
For series [7], the target named is T1, Receptor-interacting serine/threonine-protein kinase 2 (Homo sapiens, UniProt O43353). As to the kind of experiment: Inhibition of RIPK2 (unknown origin) assessed as residual enzyme activity at 50 uM by [33P]-ATP filter binding kinase assay relative to control.
T1 sequence (O43353 whole entry): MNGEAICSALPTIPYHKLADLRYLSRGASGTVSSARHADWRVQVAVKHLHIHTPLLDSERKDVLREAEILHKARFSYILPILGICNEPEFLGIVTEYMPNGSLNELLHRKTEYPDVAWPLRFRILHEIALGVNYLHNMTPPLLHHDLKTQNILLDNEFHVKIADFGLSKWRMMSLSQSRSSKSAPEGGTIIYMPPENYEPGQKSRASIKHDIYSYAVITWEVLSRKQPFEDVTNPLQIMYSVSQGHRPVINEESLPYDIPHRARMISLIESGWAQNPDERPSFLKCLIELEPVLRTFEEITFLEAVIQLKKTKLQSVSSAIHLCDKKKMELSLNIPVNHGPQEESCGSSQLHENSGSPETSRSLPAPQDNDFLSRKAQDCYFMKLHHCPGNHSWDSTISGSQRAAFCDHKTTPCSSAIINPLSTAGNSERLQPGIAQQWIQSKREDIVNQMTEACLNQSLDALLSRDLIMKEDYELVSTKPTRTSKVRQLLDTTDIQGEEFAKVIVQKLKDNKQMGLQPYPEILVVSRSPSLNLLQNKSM
Series [8] addresses Mitogen-activated protein kinase 15 (Homo sapiens) (UniProt Q8TD08). As to the kind of experiment: Inhibition of ERK8 (unknown origin) assessed as residual enzyme activity at 50 uM by [33P]-ATP filter binding kinase assay relative to control.
The target in series [9] is Myosin light chain kinase family member 4 (Homo sapiens) (UniProt Q86YV6). As to the kind of experiment: Binding affinity to wild-type human partial length MYLK4 (V79 to S380 residues) expressed in bacterial expression system assessed as residual binding level at 10 uM by active-site directed competition binding assay based Kinomescan method relative to control.
Chain of Myosin light chain kinase family member 4 (Homo sapiens) (Q86YV6 whole entry, the tested form may be a part): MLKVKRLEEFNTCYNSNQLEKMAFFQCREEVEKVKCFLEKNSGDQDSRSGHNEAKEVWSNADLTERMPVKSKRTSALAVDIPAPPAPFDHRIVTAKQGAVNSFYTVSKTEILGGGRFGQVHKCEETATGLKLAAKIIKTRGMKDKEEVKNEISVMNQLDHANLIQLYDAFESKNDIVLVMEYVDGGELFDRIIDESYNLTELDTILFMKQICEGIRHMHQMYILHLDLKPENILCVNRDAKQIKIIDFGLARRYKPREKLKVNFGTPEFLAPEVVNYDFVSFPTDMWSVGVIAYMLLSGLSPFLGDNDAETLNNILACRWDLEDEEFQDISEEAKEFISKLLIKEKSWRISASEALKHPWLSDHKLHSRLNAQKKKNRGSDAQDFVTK
The nature of series [10]: Intrinsic clearance in human liver microsomes at 3 uM measured up to 50 mins by LC-MS analysis. The series is classed as ADME, Microsome. Particulars: read-out: CLH.
A short description of series [11]: Intrinsic clearance in mouse liver microsomes at 3 uM measured up to 50 mins by LC-MS analysis. The series is classed as ADME, Microsome. To be noted: read-out: CLH.
In series [12] the target is Serine/threonine-protein kinase 17B (Homo sapiens) (UniProt O94768). As to the kind of experiment: Binding affinity to wild-type human full length DRAK2 (M1 to C372 residues) expressed in bacterial expression system assessed as residual binding level at 10 uM by active-site directed competition binding assay based Kinomescan method relative to control.
Series [13] has as its system Hs-578T. As to the kind of experiment: cells. Particulars: Homo sapiens, 72 h.
Description: Cytotoxicity in human Hs 578T cells assessed as reduction in cell viability incubated for 72 hrs by SRB assay
Series [14] deals with T2, Serine/threonine-protein kinase 17B (Homo sapiens, UniProt O94768).
T2 sequence (O94768 whole entry): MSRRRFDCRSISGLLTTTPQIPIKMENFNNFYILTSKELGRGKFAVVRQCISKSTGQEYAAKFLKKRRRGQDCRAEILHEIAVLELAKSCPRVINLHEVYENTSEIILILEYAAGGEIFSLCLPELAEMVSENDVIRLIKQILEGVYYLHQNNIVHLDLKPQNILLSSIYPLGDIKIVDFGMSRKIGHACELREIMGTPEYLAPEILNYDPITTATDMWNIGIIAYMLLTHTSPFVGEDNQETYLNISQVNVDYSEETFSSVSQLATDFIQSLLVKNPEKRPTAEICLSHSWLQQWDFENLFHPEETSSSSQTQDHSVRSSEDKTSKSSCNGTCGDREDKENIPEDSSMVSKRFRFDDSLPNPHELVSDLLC
As to the kind of experiment: Binding affinity to wild-type human full length DRAK2 (M1 to C372 residues) expressed in bacterial expression system by active-site directed competition binding assay based Kinomescan method.

The target in series [15] is T3, Mitogen-activated protein kinase kinase kinase 7 (Homo sapiens) (UniProt O43318).
T3 sequence (whole entry): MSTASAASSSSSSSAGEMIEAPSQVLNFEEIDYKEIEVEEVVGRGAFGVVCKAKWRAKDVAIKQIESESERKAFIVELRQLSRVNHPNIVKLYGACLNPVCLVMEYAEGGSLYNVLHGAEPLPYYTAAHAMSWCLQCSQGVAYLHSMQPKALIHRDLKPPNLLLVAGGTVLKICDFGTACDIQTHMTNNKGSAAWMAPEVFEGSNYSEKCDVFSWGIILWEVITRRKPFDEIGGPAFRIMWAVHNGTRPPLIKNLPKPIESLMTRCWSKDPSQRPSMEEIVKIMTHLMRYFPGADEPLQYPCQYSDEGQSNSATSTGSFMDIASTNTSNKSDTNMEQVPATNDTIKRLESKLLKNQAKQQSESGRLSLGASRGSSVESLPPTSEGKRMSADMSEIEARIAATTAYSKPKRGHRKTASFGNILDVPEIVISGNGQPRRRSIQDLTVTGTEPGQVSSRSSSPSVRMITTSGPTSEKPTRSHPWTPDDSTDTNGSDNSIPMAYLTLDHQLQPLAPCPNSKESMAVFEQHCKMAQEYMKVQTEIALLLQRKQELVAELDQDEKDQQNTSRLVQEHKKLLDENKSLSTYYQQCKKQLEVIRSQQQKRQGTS
As to the kind of experiment: Inhibition of TAK1 (unknown origin) assessed as residual enzyme activity at 50 uM by [33P]-ATP filter binding kinase assay relative to control.

Series [16] has as its target T1, Receptor-interacting serine/threonine-protein kinase 2. As to the kind of experiment: Binding affinity to wild-type human partial length RIPK2 (M1 to K310 residues) expressed in bacterial expression system assessed as residual binding level at 10 uM by active-site directed competition binding assay based Kinomescan method relative to control.
For series [17], the target named is Serine/threonine-protein kinase DCLK3 (Homo sapiens, UniProt Q9C098). As to the kind of experiment: Binding affinity to wild-type human partial length DCAMKL3 (E140 to V628 residues) expressed in bacterial expression system by active-site directed competition binding assay based Kinomescan method.
In series [18] the target is Cyclin-G-associated kinase (Homo sapiens, UniProt O14976). As to the kind of experiment: Binding affinity to wild-type human partial length GAK (G13 to Y338 residues) expressed in bacterial expression system by active-site directed competition binding assay based Kinomescan method.
Chain of Cyclin-G-associated kinase (O14976 whole entry, the tested form may be a part): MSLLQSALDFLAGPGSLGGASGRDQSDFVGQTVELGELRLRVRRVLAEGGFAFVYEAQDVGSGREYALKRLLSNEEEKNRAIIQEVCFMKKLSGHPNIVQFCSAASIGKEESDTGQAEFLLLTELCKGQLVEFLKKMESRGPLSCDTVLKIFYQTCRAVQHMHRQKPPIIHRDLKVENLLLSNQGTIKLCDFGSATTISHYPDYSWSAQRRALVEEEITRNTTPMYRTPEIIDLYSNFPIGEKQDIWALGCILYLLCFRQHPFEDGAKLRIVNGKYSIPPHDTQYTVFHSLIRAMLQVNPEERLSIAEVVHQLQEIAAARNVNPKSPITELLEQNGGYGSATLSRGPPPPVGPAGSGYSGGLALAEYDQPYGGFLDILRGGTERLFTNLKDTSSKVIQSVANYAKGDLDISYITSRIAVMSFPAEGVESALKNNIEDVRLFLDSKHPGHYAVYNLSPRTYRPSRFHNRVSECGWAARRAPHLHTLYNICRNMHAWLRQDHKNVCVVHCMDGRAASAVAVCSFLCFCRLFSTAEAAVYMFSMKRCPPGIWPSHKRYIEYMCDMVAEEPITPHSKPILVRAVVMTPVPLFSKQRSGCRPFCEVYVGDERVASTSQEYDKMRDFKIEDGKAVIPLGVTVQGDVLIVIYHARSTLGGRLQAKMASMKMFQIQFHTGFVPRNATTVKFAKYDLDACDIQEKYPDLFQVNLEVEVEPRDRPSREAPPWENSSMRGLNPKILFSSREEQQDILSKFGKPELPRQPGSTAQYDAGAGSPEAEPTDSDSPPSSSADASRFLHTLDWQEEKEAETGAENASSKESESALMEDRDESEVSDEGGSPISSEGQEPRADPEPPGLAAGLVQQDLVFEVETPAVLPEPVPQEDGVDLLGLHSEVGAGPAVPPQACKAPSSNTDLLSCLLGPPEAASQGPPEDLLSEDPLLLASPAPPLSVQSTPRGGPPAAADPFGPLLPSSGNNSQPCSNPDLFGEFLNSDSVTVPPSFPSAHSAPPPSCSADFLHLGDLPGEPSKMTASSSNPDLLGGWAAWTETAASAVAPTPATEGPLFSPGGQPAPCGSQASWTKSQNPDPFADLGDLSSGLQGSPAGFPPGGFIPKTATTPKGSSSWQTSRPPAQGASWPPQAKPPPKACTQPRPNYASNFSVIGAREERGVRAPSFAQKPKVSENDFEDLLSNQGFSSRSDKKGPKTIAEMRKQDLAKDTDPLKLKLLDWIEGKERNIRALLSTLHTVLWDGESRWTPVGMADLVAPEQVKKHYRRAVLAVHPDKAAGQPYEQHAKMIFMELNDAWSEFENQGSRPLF
Series [19] concerns the target T1, Receptor-interacting serine/threonine-protein kinase 2. As to the kind of experiment: Inhibition of RIPK2 (unknown origin) assessed as residual enzyme activity at 1 uM by [33P]-ATP filter binding kinase assay relative to control.
For series [20], the target named is 3',5'-cyclic-AMP phosphodiesterase 4D (Homo sapiens) (UniProt Q08499). As to the kind of experiment: Inhibition of human recombinant phosphodiesterase type 4D2 using [3H]cAMP and cAMP incubated for 20 mins by scintillation counting method.
Chain of 3',5'-cyclic-AMP phosphodiesterase 4D (Homo sapiens) (Q08499 whole entry): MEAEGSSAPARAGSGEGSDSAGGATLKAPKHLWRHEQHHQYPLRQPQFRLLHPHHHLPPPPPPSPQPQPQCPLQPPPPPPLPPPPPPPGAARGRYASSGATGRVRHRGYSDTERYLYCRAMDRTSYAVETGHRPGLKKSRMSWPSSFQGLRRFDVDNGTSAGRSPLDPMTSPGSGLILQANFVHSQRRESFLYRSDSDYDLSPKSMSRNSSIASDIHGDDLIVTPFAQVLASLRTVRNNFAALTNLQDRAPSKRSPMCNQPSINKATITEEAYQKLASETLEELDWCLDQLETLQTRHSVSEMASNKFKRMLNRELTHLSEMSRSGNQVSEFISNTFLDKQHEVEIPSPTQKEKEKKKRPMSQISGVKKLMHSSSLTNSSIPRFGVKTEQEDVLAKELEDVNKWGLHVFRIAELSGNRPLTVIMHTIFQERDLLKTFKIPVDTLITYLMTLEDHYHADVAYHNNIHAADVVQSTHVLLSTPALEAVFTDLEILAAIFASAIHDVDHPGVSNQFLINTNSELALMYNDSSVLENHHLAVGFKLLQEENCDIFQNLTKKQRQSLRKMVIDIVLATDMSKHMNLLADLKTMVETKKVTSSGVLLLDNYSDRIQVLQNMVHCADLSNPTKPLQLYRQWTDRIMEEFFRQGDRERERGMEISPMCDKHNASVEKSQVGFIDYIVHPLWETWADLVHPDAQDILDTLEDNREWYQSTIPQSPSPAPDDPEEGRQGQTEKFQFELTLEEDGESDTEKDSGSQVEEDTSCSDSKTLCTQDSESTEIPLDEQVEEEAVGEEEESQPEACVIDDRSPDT
For series [21], the system named is NCI-H460. As to the kind of experiment: Cytotoxicity in human NCI-H460 cells assessed as reduction in cell viability incubated for 72 hrs by SRB assay. To be noted: NCI-H460, 72 h.
Series [22] concerns HepG2. As to the kind of experiment: Cytotoxicity in human HepG2 cells assessed as reduction in cell viability incubated for 72 hrs by SRB assay. Particulars: HepG2, 72 h.
Series [23] in a line: Stability in mouse plasma assessed as parent compound remaining level at 5 uM incubated for 1 hr by LC-MS analysis. The series is classed as ADME, cell-free. Particulars: read-out: Stability.
In series [24] the target is Testis-specific serine/threonine-protein kinase 1 (Homo sapiens) (UniProt Q9BXA7). As to the kind of experiment: Inhibition of TSSK1 (unknown origin) assessed as residual enzyme activity at 50 uM by [33P]-ATP filter binding kinase assay relative to control.
Chain of Testis-specific serine/threonine-protein kinase 1 (Homo sapiens) (Q9BXA7 whole entry): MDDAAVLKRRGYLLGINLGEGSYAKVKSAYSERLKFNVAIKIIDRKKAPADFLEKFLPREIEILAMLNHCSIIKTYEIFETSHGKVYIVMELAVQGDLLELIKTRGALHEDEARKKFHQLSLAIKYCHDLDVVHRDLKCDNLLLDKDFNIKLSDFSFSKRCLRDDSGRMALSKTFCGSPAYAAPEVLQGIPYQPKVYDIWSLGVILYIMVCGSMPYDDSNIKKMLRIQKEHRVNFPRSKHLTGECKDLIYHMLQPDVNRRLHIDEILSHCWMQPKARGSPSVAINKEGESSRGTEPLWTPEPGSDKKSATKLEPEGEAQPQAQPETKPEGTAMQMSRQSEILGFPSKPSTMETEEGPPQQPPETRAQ

Chain of Mitogen-activated protein kinase 15 (Homo sapiens) (Q8TD08 whole entry, the tested form may be a part): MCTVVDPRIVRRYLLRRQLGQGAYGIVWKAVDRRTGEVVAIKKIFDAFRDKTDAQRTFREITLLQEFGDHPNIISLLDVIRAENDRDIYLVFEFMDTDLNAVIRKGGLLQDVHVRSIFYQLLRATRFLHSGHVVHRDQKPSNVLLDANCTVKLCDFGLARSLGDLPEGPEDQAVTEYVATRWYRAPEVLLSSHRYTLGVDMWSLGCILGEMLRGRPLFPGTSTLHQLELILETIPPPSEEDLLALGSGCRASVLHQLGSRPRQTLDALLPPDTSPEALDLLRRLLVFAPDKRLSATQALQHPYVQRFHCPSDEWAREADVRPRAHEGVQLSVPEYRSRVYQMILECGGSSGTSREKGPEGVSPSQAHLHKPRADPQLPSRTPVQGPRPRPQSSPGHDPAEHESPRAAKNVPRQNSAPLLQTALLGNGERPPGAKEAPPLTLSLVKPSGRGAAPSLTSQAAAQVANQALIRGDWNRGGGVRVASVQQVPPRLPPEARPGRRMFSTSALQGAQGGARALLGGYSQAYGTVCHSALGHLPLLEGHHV

Turning to `COc1cc(Br)cc2[nH]cc(-c3cnc(-c4ccc[nH]4)o3)c12`, the Activity in [1] is 7%; in series [2] it was “Tde”.
As to `COc1cc2c(-c3cnc(-c4ccc[nH]4)o3)c[nH]c2cc1Br`, in [3], the survival at 72 h, 1.4 µM came out at 45%. Besides, the IC50 in series [4] turned out to be 4170 nM; in [13], 5220 nM; in [21], 2000 nM; in series [22] it was 3000 nM. The Kd in series [5] amounted to 2700 nM; in series [14] it was 390 nM; in series [17] it was 1800 nM; in [18], 440 nM. The Activity is 100% in [6]; 10% in [7]; 9% in [8]; 0.25% in series [9]; 1.2% in [12]; 7% in [15]. For the same molecule, the Activity was determined as 57% in series [16] and 41% in [19]. Besides, the microsomal CLint at 3 µM in series [10] was found to be 14 µL/min/mg; in [11], 47 µL/min/mg. Also, in series [20], the inhibition result is “Active”. Also, in series [23], the remaining at 1 h, 5 µM came out at 84%.
For `COc1cc(Br)cc2[nH]cc(-c3oc(-c4ccc[nH]4)nc3I)c12`, the Activity in [24] was 21%.
